According to PMC12006171, “Marsupial cathelicidins: characterization, antimicrobial activity and evolution in this unique mammalian lineage” (Frontiers in Immunology, 2025):
Values after ≈ are worked out from the molar mass of the structure shown. Where two headings read alike, the source gives them in different places. Where a SMILES comes first, the peptide text is derived from it.

Key:
Assay type in all cases: cell-based
[1] = system: three fungi (Candida krusei, Candida parapsilosis, Candida albicans); test: Antifungal screening, summary over the panel of fungi (broth microdilution); conditions: synthesized mature peptide
Experimental: (§1) Antimicrobial testing of 78 cathelicidin MPs was performed in two phases as outlined in Figure 1 . In phase I, 40 peptides (27 extant and 13 ancestral) were selected for testing based on rank (outlined above) and similarity to published marsupial cathelicidins with known antimicrobial activity ([33], [41]–[43]). These peptides were tested against nine bacteria (Staphylococcus aureus ATCC 29213 and clinical isolate, Escherichia coli ATCC 25922 and clinical isolate, Pseudomonas aeruginosa ATCC 27853 and clinical isolate, Streptococcus agalactiae ATCC 12386 and clinical isolate, Streptococcus pneumoniae ATCC 49619) and three fungi (Candida krusei ATCC 6258, Candida parapsilosis ATCC 22019, and Candida albicans clinical isolate). Details regarding these strains are available in Supplementary Table 4 . The antimicrobial activity of cathelicidins was determined as the minimum inhibitory concentration (MIC), which was the lowest concentration of cathelicidin that prevented visible bacterial or fungal growth, relative to the negative control. […] Minimum bactericidal concentration (MBC) and/or minimum fungicidal concentration (MFC) was conducted to determine microbicidal versus static action. Activity against S. aureus ATCC, E. coli ATCC, and Pseudomonas aeruginosa ATCC 27853 was examined in the presence of divalent cations to determine the impact of inhibitors.
(§2) Antimicrobial activity was determined using a broth microdilution susceptibility assay in 96 well polypropylene plates according to Clinical Laboratory Standards Institute guidelines M07-A and M26A as described previously ([33], [42], [43]). The bacterial and fungal isolates from humans and animals used in this study are outlined in Supplementary Table 4 . Only yeasts were included in the panel of fungi as they have been used in the susceptibility testing of eutherian ([3], [81]–[83]) and other marsupial cathelicidins previously ([33], [42], [43]). Cathelicidin mature peptides were solubilized in DMSO and serially diluted in duplicate from 128-0.25μg/mL in a final volume of 100µL. For bacteria, cathelicidins were diluted in Mueller Hinton Broth (MHB) with or without 10% lysed horse blood, and with (MH II B) or without (MHB) calcium and magnesium cations. For fungi, cathelicidins were diluted in Roswell Park Memorial Institute medium (RPMI)-1640 MOPS. Ampicillin or tetracycline were included as a positive control for Gram-positive and -negative bacteria respectively, while amphotericin B was used for fungi. A media-only negative control and growth control (no cathelicidin) were also included on each plate. Bacteria were sub-cultured on Muller Hinton agar (MHA) or sheep blood agar (BA), and fungi on Sabouraud dextrose agar (SAB), 20–24 hours prior to the test. Colonies were suspended in saline, the concentration adjusted to a 0.5 McFarland standard, and then diluted in media to a concentration of 1.0 x 10^6 cells/mL. Then, 100μL was added to each well of the cathelicidin dilution plate, giving a final inoculum density of 5 x 10^5 CFU/mL and cathelicidin concentration of 64-0.125μg/mL. Colony counts were performed on MHA/BA/SAB to confirm inoculum density. All plates were incubated at 35°C for 20–24 hours, depending on the strain.
(§3) Colonies were counted and compared to the colony count of the starting inoculum.

[2] = system: six bacteria (S. aureus, E. coli, P. aeruginosa; ATCC and clinical isolate); conditions: synthesized mature peptide
Experimental: as §1
In phase II, the remaining 38 peptides (37 extant and one ancestral) were tested against six bacteria (S. aureus ATCC and clinical isolate, E. coli ATCC and clinical isolate, and P. aeruginosa ATCC and clinical isolate). […] No further testing on phase II peptides was performed. Detailed methods for all assays are provided in subsequent sections.
as §2, §3

[3] = system: Staphylococcus aureus clinical isolate – animal, methicillin-resistant (MRSA); conditions: clinical isolate – animal, methicillin-resistant
How it was run: (§4)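 MIC defined as lowest peptide level preventing visible growth after 20–24 h at 35°C. Candida tested in RPMI-1640 MOPS; bacteria in Mueller Hinton broth, optionally with 10% lysed horse blood and/or divalent cations. Final peptide range 64-0.125 μg/mL, starting inoculum 5 x 10^5 CFU/mL, per CLSI M07-A/M26A.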

[4] = system: Staphylococcus aureus clinical isolate – animal, penicillin-resistant (PRSA); conditions: clinical isolate – animal, penicillin-resistant (PRSA)
How it was run: as §4

[5] = system: Pseudomonas aeruginosa clinical isolate - animal; test: microbe, parasite or virus in culture; conditions: clinical isolate - animal; read-out: MIC P. aeruginosa
How it was run: (§5)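 Bacteria at a final 5 x 10^5 CFU/mL were incubated 20–24 h at 35 °C with DMSO-solubilized peptides serially diluted to 64–0.125 μg/mL in Mueller Hinton broth (± lysed horse blood, ± divalent cations). MIC read as no visible growth; bactericidal action from colony counts compared with the inoculum.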

[6] = system: Escherichia coli clinical isolate - animal; test: microbe, parasite or virus in culture; conditions: clinical isolate - animal
How it was run: as §5

[7] = system: Pseudomonas aeruginosa ATCC 27853; test: microbe, parasite or virus in culture; conditions: ATCC 27853; read-out: MIC P. aeruginosa ATCC
How it was run: as §5

[8] = system: Staphylococcus aureus ATCC 29213; test: microbe, parasite or virus in culture; conditions: ATCC 29213
How it was run: as §5

[9] = system: Escherichia coli ATCC 25922; test: microbe, parasite or virus in culture; conditions: ATCC 25922
How it was run: as §5

[10] = system: Staphylococcus aureus clinical isolate - animal; test: microbe, parasite or virus in culture; conditions: clinical isolate - animal
How it was run: as §5

[11] = system: Candida albicans Clinical isolate - human; test: microbe, parasite or virus in culture; conditions: Clinical isolate - human; read-out: MIC C. albicans
How it was run: as §4

Candida krusei ATCC 6258 = test: microbe, parasite or virus in culture; conditions: ATCC 6258
How it was run: as §4

[12] = system: Streptococcus agalactiae Clinical isolate - animal; test: microbe, parasite or virus in culture; conditions: clinical isolate - animal; read-out: MIC S. agalactiae
How it was run: as §4

[13] = system: Candida parapsilosis ATCC 22019; test: microbe, parasite or virus in culture; conditions: ATCC 22019
How it was run: as §4

[14] = system: Streptococcus agalactiae ATCC 12386; test: microbe, parasite or virus in culture; conditions: ATCC 12386; read-out: MIC S. agalactiae ATCC
How it was run: as §4

[15] = system: Streptococcus pneumoniae ATCC 49619; test: microbe, parasite or virus in culture; conditions: ATCC 49619; read-out: MIC S. pneumoniae ATCC
How it was run: as §4

[16] = antimicrobial screening Phase I, Y/N summary over fungi tested, broth microdilution
[17] = antimicrobial screening Phase I, Y/N summary over bacteria tested, broth microdilution
[18] = broth microdilution screening, phase I, Y/N summary over the fungi tested
[19] = broth microdilution screening, phase I or II, Y/N summary over the bacteria tested

## PKRKKGSKKRRFRPGGYTLIALGKPRVQKAPYMEAL [MAP3, marsupial ancestral peptide, likely linear, rich in arginine (32.2%) and proline (25.8%)]
[1]; [16]
  Antifungal (MIC <64ug/mL): N (Antifungal (MIC <64ug/mL))
[2]; [17]
  Antibacterial (MIC <64ug/mL): N (Antibacterial (MIC <64ug/mL))

## RSKRSSSLEEIDIDSLPPKVKEIYYRGIDDAIGGILRNF [TrvuCath4]
[1]; [18]
  Antifungal (MIC <64ug/mL): N (Antifungal (MIC <64ug/mL))
[2]; [19]
  Antibacterial (MIC <64ug/mL): N (Antibacterial (MIC <64ug/mL))

## RQIYDQAKYDILTGILRNF [BepeCath8]
[1]; [16]
  Antifungal (MIC <64ug/mL): N (Antifungal (MIC <64ug/mL))
[2]; [17]
  Antibacterial (MIC <64ug/mL): N (Antibacterial (MIC <64ug/mL))

## CC[C@H](C)[C@H](NC(=O)[C@H](CCCNC(=N)N)NC(=O)[C@@H](NC(=O)[C@H](CCCNC(=N)N)NC(=O)[C@@H](N)CCCCN)[C@@H](C)CC)C(=O)N[C@@H](CC(C)C)C(=O)NCC(=O)N[C@@H](CCCNC(=N)N)C(=O)N[C@@H](CC(C)C)C(=O)N[C@@H](Cc1c[nH]c2ccccc12)C(=O)N[C@@H](CC(=O)O)C(=O)NCC(=O)N[C@@H](CC(C)C)C(=O)N[C@@H](CCCNC(=N)N)C(=O)N[C@@H](CC(N)=O)C(=O)N[C@@H](CC(C)C)C(=O)NCC(=O)N[C@@H](CC(N)=O)C(=O)N[C@@H](CCCNC(=N)N)C(=O)N[C@H](C(=O)N[C@@H](CCCNC(=N)N)C(=O)N[C@@H](CC(N)=O)C(=O)N[C@@H](CCCNC(=N)N)C(=O)N[C@H](C(=O)N[C@@H](CCCNC(=N)N)C(=O)N[C@@H](CC(=O)O)C(=O)N[C@@H](Cc1ccccc1)C(=O)N[C@@H](Cc1ccccc1)C(=O)N[C@@H](CO)C(=O)O)[C@@H](C)CC)[C@@H](C)CC [MyfaCath5] (H-KRIRILGRLWDGLRNLGNRIRNRIRDFFS-OH)
[3]
  MBC MRSA: 8.8 µM (≈ 31.8 µg/mL)
  MIC MRSA: 8.8 µM (≈ 31.8 µg/mL)
[4]
  MBC PRSA: 2.2 µM (≈ 7.95 µg/mL)
  MIC PRSA: 2.2 µM (≈ 7.95 µg/mL)
[5]
  MIC: >17.7 µM
[6]
  MBC E. coli: 8.8 (8.8)^8.8 µM
  MIC E. coli: 8.8 (8.8)^8.8 µM
  MIC in the presence of cations E. coli: 8.8 (8.8)^8.8 µM
[7]
  MIC: >17.7 µM
[8]
  MBC S. aureus ATCC: 17.7 µM (≈ 63.9 µg/mL)
[8]; read-out: MIC S. aureus ATCC
  MIC: 8.8 µM (≈ 31.8 µg/mL)
[8]; read-out: MIC in the presence of cations S. aureus ATCC
  MIC: 4.4 µM
[9]
  MBC E. coli ATCC: 17.7 µM (≈ 63.9 µg/mL)
[9]; read-out: MIC E. coli ATCC
  MIC: 8.8 µM (≈ 31.8 µg/mL)
[9]; read-out: MIC in the presence of cations E. coli ATCC
  MIC: 8.8 µM
[10]
  MBC S. aureus: 8.8 µM (≈ 31.8 µg/mL)
[10]; read-out: MIC S. aureus
  MIC: 4.4 µM (≈ 15.9 µg/mL)
[10]; read-out: MIC in the presence of cations S. aureus
  MIC: 4.4 µM
[11]
  MIC: >17.7 µM
Candida krusei ATCC 6258
  MFC C. krusei ATCC: 4.4 µM (≈ 15.9 µg/mL)
  MIC C. krusei ATCC: 4.4 µM (≈ 15.9 µg/mL)
[12]
  MIC: >17.7 µM
[13]
  MFC C. parapsilosis ATCC: 17.7 µM (≈ 63.9 µg/mL)
  MIC C. parapsilosis ATCC: 17.7 µM (≈ 63.9 µg/mL)
[14]
  MIC: >17.7 µM
[15]
  MIC: >17.7 µM

## KRGLWESLKRKATKLGDDIRNTLRNFKIKVPVPRQWPIRV [MaruCath4p]
[1]; [18]
  Antifungal (MIC <64ug/mL): N (Antifungal (MIC <64ug/mL))
[2]; [19]
  Antibacterial (MIC <64ug/mL): Y (Antibacterial (MIC <64ug/mL))
